Earlier results on one substance are cited in US20160243146A1, “LEVIA : A New Injectable Parasiticidal Veterinary Formulation of Levamisole HCl and Ivermectin Solution” (priority 2015, published 2016).

The conditions of data set [1]: dissolved in propylene glycol solvent.

For the substance Ivermectin, the solubility in water entry (room temperature) is “about 0.005 mg per ml”. Also, the stability in water entry (water) is listed as “unstable in water”. For the same substance, the “period of release into the blood” value in data set [1] is on record as “up to 14 days”.
